Activity calls are given as the source filed them. The calls are words filed in the database; no cut-off is given here.
What was measured:
[1] = Metabolic stability in human hepatocytes assessed as clearance at 2 uM measured upto 120 mins by LC-MS/MS analysis; assay type: ADME, cell-based, Hepatocyte
[2] = Efflux ratio of apparent permeability across basolateral to apical over apical to basolateral side in MDCKII-MDR1 cells at 1 uM incubated for 2 hrs in orbital shaker by LC-MS/MS analysis; assay type: ADME, cell-based, Canis lupus familiaris; details: dog, MDCK-MDR1
[3] = Apparent permeability across apical to basolateral side in MDCKII-MDR1 cells at 1 uM incubated for 2 hrs in orbital shaker by LC-MS/MS analysis; assay type: ADME, cell-based, Canis lupus familiaris; details: dog, MDCK-MDR1
[4] = target: Hepatocyte growth factor receptor (Homo sapiens, UniProt P08581, F1200I); assay: Displacement of tracer 236 from N-terminal GST-tagged recombinant human MET F1200I mutant (956 to end residues) expressed in Sf9 insect cells incubated for 1 hr by TR-FRET assay
[5] = target: T1, Hepatocyte growth factor receptor (Homo sapiens, UniProt P08581, D1228N); assay: Inhibition of MET D1228N mutant (unknown origin) transfected in mouse NIH3T3 cells incubated for 1 hr by In-Cell Western assay; assay type: cell-based
[6] = target: Hepatocyte growth factor receptor (Homo sapiens, UniProt P08581, Y1230H); assay: Displacement of tracer 236 from N-terminal GST-tagged recombinant human MET Y1230H mutant (956 to end residues) expressed in Sf9 insect cells incubated for 1 hr by TR-FRET assay
[7] = target: T1, Hepatocyte growth factor receptor; assay: Displacement of tracer 236 from N-terminal GST-tagged recombinant human MET D1228N mutant (956 to end residues) expressed in Sf9 insect cells incubated for 1 hr by TR-FRET assay
[8] = Displacement of tracer 236 from N-terminal GST-tagged recombinant human MET exon 14 deletion mutant (956 to end residues) expressed in Sf9 insect cells incubated for 1 hr by TR-FRET assay
[9] = Displacement of tracer 236 from N-terminal GST-tagged recombinant human MET […] mutant (956 to end residues) expressed in Sf9 insect cells incubated for 1 hr by TR-FRET assay
[10] = Metabolic stability in mouse hepatocytes assessed as clearance at 2 uM measured upto 120 mins by LC-MS/MS analysis; assay type: ADME, cell-based, Hepatocyte
[11] = target: T2, Vascular endothelial growth factor receptor 2 (Homo sapiens, UniProt P35968); assay: Inhibition of VEGFR-2 (unknown origin) by cell based assay; assay type: toxicity
Cytochrome P450 = assay: Inhibition of CYP450 (unknown origin); assay type: ADME, protein assay; details: human
[12] = Ratio of unbound drug concentration in female athymic nude Foxn1nu mouse brain to plasma at 30 mg/kg, po administered as single dose and measured after 24 hrs by LC/MS analysis; assay type: ADME, organism-based; details: read-out: K(p,uu,brain)
[13] = target: T2, Vascular endothelial growth factor receptor 2; assay: Inhibition of VEGFR2 in human Flp-In-293 cells by ELISA; assay type: toxicity, cell-based
[14] = AUCinfinity in female athymic nude Foxn1nu mouse at 30 mg/kg, po administered as single dose and measured after 24 hrs by LC/MS analysis; assay type: ADME, organism-based; details: in vivo
[15] = Clearance in female athymic nude Foxn1nu mouse at 1 mg/kg, iv administered as single dose and measured after 24 hrs by LC/MS analysis; assay type: ADME, organism-based; details: in vivo
NIH3T3 [16] = assay: (§1) Antitumor activity against mouse NIH3T3 cells expressing luciferase and human MET exon 14 deletion construct with MET-D1228N Type I resistance mutation implanted in female athymic nude Foxn1nu mouse assessed as reduction in tumor burden at 100 mg/kg, po qd measured after 29 days by luminescent imaging based analysis; assay type: functional, organism-based; details: time 29.0 day
[17] = Hepatic extraction ratio in female athymic nude Foxn1nu mouse at 1 mg/kg, iv administered as single dose and measured after 24 hrs by LC/MS analysis; assay type: ADME, organism-based; details: in vivo, read-out: ERH
[18] = Ratio of unbound drug concentration in female athymic nude Foxn1nu mouse brain to plasma at 100 mg/kg, po administered as single dose and measured after 24 hrs by LC/MS analysis; assay type: ADME, organism-based; details: read-out: K(p,uu,brain)
[19] = Cmax in female athymic nude Foxn1nu mouse plasma at 30 mg/kg, po administered as single dose and measured after 24 hrs by LC/MS analysis; assay type: ADME, organism-based
[20] = Tmax in female athymic nude Foxn1nu mouse at 30 mg/kg, po administered as single dose and measured after 24 hrs by LC/MS analysis; assay type: ADME, organism-based; details: in vivo
Hs746T [21] = assay: Antitumor activity against human Hs746T cells expressing MET exon 14 skipping mutation with MET amplification xenografted in female athymic nude Foxn1nu mouse at 100 mg/kg, po qd administered for 14 days; assay type: functional, organism-based; details: time 14.0 day
NIH3T3 [22] = assay: Antitumor activity against mouse NIH3T3 cells expressing luciferase and human MET exon 14 deletion construct with MET-D1228N Type I resistance mutation implanted in female athymic nude Foxn1nu mouse assessed as animal survival rate at 100 mg/kg, po qd measured until 80 days relative to control; assay type: functional; details: NIH3T3, 1920 h, time 80 day
NIH3T3 [23] = assay: as §1, with “30” for “100”, “bid” for “qd”; assay type: functional, organism-based; details: time 29.0 day
NIH3T3 [24] = assay: as §1, with “median survival time” for “reduction in tumor burden”, “30” for “100”, “bid” for “qd”, “(reference value: 15.5 day)” for “by luminescent imaging based analysis”; assay type: functional; details: time 29 day
[25] = Cmax in female athymic nude Foxn1nu mouse brain at 30 mg/kg, po administered as single dose and measured after 24 hrs by LC/MS analysis; assay type: ADME, organism-based; details: in vivo
Mus musculus = assay: In vivo inhibition of MET in female athymic nude Foxn1nu mouse xenografted with human Hs746T cells expressing MET exon 14 skipping mutation with MET amplification assessed as reduction in phospho-MET protein level in tumor at 3 to 100 mg/kg, po administered as single dose measured after 2 to 8 hrs by ELISA relative to control; assay type: functional, organism-based; details: dose 3-100 mg/kg, time 2-8 hrs
[26] = In vivo inhibition of MET in female athymic nude Foxn1nu mouse implanted with mouse NIH3T3 cells expressing luciferase and human MET exon 14 deletion construct with MET-D1228N Type I resistance mutation assessed as reduction in phospho-MET protein level in tumor by measuring residual activity at 30 to 100 mg/kg, po administered as single dose measured after 12 hrs by ELISA relative to control; assay type: functional; details: dose 30-100 mg/kg
[27] = Volume of distribution at steady state in female athymic nude Foxn1nu mouse at 1 mg/kg, iv administered as single dose and measured after 24 hrs by LC/MS analysis; assay type: ADME, organism-based; details: in vivo, read-out: Vdss
[28] = target: Macrophage-stimulating protein receptor (Homo sapiens) (UniProt Q04912); assay: Inhibition of human RON incubated for 5 mins in presence of ATP by chelation-enhanced fluorescence based Beckman Coulter analysis relative to control
[29] = Half life in female athymic nude Foxn1nu mouse at 1 mg/kg, iv administered as single dose and measured after 24 hrs by LC/MS analysis; assay type: ADME, organism-based; details: in vivo
Hs746T [30] = assay: Antitumor activity against human Hs746T cells expressing MET exon 14 skipping mutation with MET amplification xenografted in female athymic nude Foxn1nu mouse at 3 to 30 mg/kg, po bid administered for 14 days; assay type: functional, organism-based; details: dose 3-30 mg/kg, time 14.0 day

Hepatocyte growth factor receptor (Homo sapiens, UniProt P08581, Y1230H), sequence (P08581 25-1390 Y1230H limits assumed): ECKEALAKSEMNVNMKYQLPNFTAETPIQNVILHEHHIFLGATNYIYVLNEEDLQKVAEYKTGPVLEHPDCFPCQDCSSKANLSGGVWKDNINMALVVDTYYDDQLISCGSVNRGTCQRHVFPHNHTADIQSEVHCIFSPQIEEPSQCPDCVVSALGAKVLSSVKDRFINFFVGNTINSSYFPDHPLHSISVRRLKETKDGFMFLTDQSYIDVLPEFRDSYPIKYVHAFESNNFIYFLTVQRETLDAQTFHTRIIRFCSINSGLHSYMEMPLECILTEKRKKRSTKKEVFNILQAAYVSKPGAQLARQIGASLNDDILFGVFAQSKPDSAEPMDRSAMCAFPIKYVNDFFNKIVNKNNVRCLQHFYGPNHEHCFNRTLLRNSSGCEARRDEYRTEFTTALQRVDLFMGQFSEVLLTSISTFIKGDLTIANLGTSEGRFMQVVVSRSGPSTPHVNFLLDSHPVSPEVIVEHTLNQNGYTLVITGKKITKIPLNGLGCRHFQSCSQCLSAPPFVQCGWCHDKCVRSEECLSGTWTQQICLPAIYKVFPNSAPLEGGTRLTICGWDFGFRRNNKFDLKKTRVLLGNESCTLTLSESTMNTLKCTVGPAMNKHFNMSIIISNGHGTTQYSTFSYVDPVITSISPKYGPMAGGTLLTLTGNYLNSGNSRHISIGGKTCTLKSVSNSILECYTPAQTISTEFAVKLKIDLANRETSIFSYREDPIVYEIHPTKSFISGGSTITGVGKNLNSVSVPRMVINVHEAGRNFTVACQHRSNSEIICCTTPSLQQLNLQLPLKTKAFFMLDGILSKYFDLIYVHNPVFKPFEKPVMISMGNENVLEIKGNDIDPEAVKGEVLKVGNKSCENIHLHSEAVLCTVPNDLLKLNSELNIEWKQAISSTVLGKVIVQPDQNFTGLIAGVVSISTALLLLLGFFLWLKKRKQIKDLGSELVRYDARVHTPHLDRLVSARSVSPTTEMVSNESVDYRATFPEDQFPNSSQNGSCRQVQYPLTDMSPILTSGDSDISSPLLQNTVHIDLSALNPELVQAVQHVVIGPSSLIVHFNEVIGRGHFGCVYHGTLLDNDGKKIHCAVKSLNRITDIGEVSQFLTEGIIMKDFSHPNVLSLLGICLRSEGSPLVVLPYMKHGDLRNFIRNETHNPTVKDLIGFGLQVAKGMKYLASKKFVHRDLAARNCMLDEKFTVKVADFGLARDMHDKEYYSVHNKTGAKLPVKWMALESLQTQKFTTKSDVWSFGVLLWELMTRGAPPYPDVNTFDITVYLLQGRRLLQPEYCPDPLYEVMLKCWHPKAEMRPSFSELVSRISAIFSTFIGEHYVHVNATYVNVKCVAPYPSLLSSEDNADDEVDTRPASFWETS
T1 sequence (P08581 25-1390 D1228N limits assumed): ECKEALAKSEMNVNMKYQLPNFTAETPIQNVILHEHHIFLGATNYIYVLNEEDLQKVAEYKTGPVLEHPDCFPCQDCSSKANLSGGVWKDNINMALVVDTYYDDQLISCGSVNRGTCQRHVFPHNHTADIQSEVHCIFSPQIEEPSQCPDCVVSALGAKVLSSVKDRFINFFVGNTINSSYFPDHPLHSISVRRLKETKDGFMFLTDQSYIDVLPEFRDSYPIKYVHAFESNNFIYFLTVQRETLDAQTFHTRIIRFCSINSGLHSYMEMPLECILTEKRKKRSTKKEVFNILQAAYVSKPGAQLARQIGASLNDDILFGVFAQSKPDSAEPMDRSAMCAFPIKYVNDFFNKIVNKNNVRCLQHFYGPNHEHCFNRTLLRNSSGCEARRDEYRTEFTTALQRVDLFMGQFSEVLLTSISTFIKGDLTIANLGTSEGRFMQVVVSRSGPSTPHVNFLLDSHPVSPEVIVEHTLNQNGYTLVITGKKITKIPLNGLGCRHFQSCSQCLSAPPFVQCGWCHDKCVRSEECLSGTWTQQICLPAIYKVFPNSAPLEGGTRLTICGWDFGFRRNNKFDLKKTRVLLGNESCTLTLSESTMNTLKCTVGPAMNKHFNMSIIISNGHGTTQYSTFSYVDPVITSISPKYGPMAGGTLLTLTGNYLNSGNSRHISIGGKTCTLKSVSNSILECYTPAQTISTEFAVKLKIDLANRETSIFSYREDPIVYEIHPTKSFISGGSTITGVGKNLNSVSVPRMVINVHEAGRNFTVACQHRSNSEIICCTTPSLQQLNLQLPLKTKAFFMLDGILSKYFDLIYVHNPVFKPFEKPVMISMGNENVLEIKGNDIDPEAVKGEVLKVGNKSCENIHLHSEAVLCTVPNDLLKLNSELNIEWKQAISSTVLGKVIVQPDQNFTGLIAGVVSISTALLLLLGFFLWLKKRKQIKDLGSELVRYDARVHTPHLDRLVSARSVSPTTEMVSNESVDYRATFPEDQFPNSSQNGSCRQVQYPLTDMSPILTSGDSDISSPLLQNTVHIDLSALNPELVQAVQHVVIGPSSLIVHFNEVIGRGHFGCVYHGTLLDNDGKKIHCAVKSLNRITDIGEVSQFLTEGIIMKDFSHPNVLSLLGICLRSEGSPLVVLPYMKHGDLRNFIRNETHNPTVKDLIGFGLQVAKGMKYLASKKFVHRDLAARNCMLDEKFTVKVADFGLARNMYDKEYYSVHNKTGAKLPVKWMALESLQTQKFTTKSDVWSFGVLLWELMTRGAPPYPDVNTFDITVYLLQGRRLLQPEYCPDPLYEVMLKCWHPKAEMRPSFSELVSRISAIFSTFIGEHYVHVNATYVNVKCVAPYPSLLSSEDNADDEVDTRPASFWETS
T2 sequence (P35968 whole entry): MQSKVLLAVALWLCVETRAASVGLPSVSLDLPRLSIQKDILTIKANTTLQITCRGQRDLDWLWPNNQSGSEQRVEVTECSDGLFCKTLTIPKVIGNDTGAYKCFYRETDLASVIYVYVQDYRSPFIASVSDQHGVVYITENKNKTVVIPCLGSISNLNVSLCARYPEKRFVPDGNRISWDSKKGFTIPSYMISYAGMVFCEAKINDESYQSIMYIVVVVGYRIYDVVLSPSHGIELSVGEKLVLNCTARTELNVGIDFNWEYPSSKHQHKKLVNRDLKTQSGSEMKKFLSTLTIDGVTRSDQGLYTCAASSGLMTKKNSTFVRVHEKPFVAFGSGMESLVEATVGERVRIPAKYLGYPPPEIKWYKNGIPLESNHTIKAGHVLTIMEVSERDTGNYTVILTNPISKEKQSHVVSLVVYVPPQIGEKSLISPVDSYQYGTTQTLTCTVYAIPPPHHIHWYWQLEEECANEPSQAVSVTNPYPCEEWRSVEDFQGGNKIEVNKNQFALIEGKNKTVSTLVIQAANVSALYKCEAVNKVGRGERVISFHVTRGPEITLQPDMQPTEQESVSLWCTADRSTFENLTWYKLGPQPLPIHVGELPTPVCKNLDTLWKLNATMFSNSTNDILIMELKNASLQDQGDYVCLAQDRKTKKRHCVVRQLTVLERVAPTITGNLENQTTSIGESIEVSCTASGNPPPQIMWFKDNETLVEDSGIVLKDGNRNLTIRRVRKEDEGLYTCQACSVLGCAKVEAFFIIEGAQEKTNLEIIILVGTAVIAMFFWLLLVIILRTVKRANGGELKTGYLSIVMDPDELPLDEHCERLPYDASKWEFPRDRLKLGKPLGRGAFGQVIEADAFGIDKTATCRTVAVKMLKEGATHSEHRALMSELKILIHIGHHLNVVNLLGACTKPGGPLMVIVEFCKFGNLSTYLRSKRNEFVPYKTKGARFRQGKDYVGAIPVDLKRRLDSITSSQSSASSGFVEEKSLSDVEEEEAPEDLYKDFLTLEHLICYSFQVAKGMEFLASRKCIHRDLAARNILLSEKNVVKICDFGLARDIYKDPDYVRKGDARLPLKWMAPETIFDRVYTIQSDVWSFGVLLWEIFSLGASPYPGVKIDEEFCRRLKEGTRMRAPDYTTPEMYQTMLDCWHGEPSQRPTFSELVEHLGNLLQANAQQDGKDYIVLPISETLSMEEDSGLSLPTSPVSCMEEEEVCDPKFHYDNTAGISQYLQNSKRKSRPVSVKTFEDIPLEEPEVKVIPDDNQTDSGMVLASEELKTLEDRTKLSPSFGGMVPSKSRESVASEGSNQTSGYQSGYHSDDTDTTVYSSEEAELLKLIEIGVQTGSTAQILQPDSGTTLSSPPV

Cn1ccc([C@H]2C[C@H](N(c3cc(Cl)c(NC(=O)c4ccnn(-c5ccc(F)cn5)c4=O)cc3F)c3nccn4nccc34)C2)n1
CLhep predicted at 2 µM [1]: 0.3 L/h/kg
efflux ratio at 2 h, 1 µM [2]: 1
Papp A→B at 2 h, 1 µM [3]: 60 nm/s
IC50 [4]: 0.479 µM
IC50 [5]: 0.097 µM
IC50 [6]: 0.013 µM
IC50 [7]: 0.021 µM
IC50 [8]: 0.012 µM
IC50 [9]: 0.125 µM
CLhep predicted at 2 µM [10]: 0.54 L/h/kg

Cc1cc(N(c2cc(F)c(NC(=O)c3ccnn(-c4ccc(F)cn4)c3=O)cc2F)[C@H]2C[C@H](c3ccn(C)n3)C2)c(F)cn1
CLhep predicted at 2 µM [1]: 0.54 L/h/kg
Papp A→B at 2 h, 1 µM [3]: 150 nm/s
IC50 [4]: 0.098 µM
IC50 [5]: 0.04 µM
IC50 [6]: 0.005 µM
IC50 [7]: 0.006 µM
IC50 [9]: 0.036 µM
CLhep predicted at 2 µM [10]: 1.86 L/h/kg

COCCNCc1ccc(-c2cc3nccc(Oc4ccc(NC(=S)NC(=O)Cc5ccc(F)cc5)cc4F)c3s2)nc1 [GLESATINIB]
IC50 [11]: 0.172 µM

Cn1ccc([C@H]2C[C@H](N(c3cc(F)c(NC(=O)c4ccnn(-c5ccc(F)cn5)c4=O)cc3F)c3nccn4nccc34)C2)n1
inhibition (INH) (Cytochrome P450): Not Active
Kp uu at 24 h [12]: 0.11
IC50 [13]: > 5 µM
AUC(0-inf) [14]: 113 µg·h/mL
clearance [15]: 0.57 L/h/kg
Activity (NIH3T3 [16]): Active
hepatic extraction ratio at 24 h [17]: 0.106
CLhep predicted at 2 µM [1]: 0.78 L/h/kg
efflux ratio at 2 h, 1 µM [2]: 1.1
Kp uu at 24 h [18]: 0.24
Papp A→B at 2 h, 1 µM [3]: 80 nm/s
Cmax [19]: 10.5 µg/mL
Tmax [20]: 2 h
IC50 [4]: 0.09 µM
IC50 [5]: 0.023 µM
IC50 [6]: 0.005 µM
Activity (Hs746T [21]): Active
IC50 [7]: 0.006 µM
survival at 100 mg/kg (NIH3T3 [22]): 100%
Activity (NIH3T3 [23]): Active
MST (NIH3T3 [24]): 33 days
Cmax [25]: 0.9 µg/mL
inhibition (Mus musculus): Active
Activity [26]: <6%
Vd [27]: 1.3 L/kg
inhibition [28]: > 50%
IC50 [8]: 0.006 µM
IC50 [9]: 0.015 µM
half-life [29]: 1.9 h
Activity (Hs746T [30]): Active
CLhep predicted at 2 µM [10]: 2.1 L/h/kg

CC(C)(C#N)CN(c1cc(F)c(NC(=O)c2ccnn(-c3ccc(F)cc3)c2=O)cc1F)c1cccn2nccc12
IC50 [4]: 0.326 µM
IC50 [5]: 0.025 µM
IC50 [6]: 0.007 µM
IC50 [7]: 0.008 µM
IC50 [9]: 0.053 µM

O=C(Nc1cc(F)c(N(c2cccn3nccc23)C2CCC2)cc1F)c1ccnn(-c2ccc(F)cc2)c1=O
IC50 [4]: 0.222 µM
IC50 [5]: 0.158 µM
IC50 [6]: 0.03 µM
IC50 [7]: 0.024 µM
IC50 [8]: 0.016 µM
IC50 [9]: 0.057 µM

Cc1cc2c(N(c3cc(F)c(NC(=O)c4ccnn(-c5ccc(F)cn5)c4=O)cc3F)[C@H]3C[C@H](c4ccn(C)n4)C3)nccn2n1
efflux ratio at 2 h, 1 µM [2]: 0.9
IC50 [4]: 5 µM
IC50 [5]: > 5 µM
IC50 [6]: 0.758 µM
IC50 [7]: 1.77 µM
IC50 [8]: 0.397 µM

COc1cc(N(c2cc(F)c(NC(=O)c3ccnn(-c4ccc(F)cn4)c3=O)cc2F)[C@H]2C[C@H](c3ccn(C)n3)C2)c2ccnn2c1
CLhep predicted at 2 µM [1]: 0.72 L/h/kg
IC50 [4]: 0.054 µM
IC50 [5]: 0.022 µM
IC50 [6]: 0.017 µM
IC50 [7]: 0.011 µM
IC50 [8]: 0.016 µM
IC50 [9]: 0.032 µM
CLhep predicted at 2 µM [10]: 2.28 L/h/kg

CCN(c1cc(F)c(NC(=O)c2ccnn(-c3ccc(F)cc3)c2=O)cc1F)c1cccn2nccc12
IC50 [4]: 0.622 µM
IC50 [5]: 0.198 µM
IC50 [6]: 0.038 µM
IC50 [7]: 0.064 µM
IC50 [8]: 0.036 µM
IC50 [9]: 0.172 µM

Cn1ccc([C@H]2C[C@H](N(c3cc(F)c(NC(=O)c4ccnn(-c5ccc(F)cn5)c4=O)cc3Cl)c3nccn4nccc34)C2)n1
CLhep predicted at 2 µM [1]: 0.54 L/h/kg
Papp A→B at 2 h, 1 µM [3]: 50 nm/s
IC50 [4]: 0.147 µM
IC50 [5]: 0.028 µM
IC50 [6]: 0.007 µM
IC50 [7]: 0.009 µM
IC50 [8]: 0.006 µM
IC50 [9]: 0.036 µM
CLhep predicted at 2 µM [10]: 1.86 L/h/kg

— ChEMBL document CHEMBL5576125, “Discovery of Pyrazolopyrazines as Selective, Potent, and Mutant-Active MET Inhibitors with Intracranial Efficacy” (J Med Chem, 2024)
